Laboratory results from US20060183794A1, “Drug composition containing nf-kb inhibitor” (priority 2002, published 2006).

Experiments:
[1] = system: ICAM-1, VCAM-1, and E-selectin; test: Western blot of adhesion molecule expression in TNF-α-stimulated HUVECs; type: cell-based, human; conditions: HUVECs pretreated with DHMEQ for 2 hours, 10 ng/ml TNF-α
Method: The protein concentration of this supernatant was determined by a liquid of Coomassie Brilliant Blue (Bio-Rad), and concentration was adjusted. Subsequently, 3×SDS loading buffer (150 mM Tris-HCl: pH 6.8, 30% glycerol, 3% SDS (Kanto Kagaku), 0.03 mg/ml bromophenol blue, 150 μl/ml 2-mercaptoethanol (Kanto Kagaku)) was added at a volume equal to half the volume of the lysis buffer that had been added, followed by boiling for 5 min. Using this as a sample, electrophoresis was performed in a 12.5% polyacrylamide gel. After the electrophoresis, the proteins in the gel were transferred to a PVDF membrane (Amersham) and blocked with TBS buffer (20 mM Tris-HCl: pH7.6, 137 mM NaCl) containing 5% skim milk (Snow Brand). Subsequently, the proteins were reacted with the PVDF membrane using antibodies to ICAM-1 (Santa Cruz), VCAM-1 (Santa Cruz), and E-selectin (Santa Cruz), followed by reactions with secondary antibodies (the secondary antibodies to ICAM-1, VCAM-1, and E-selectin (Amersham and Santa Cruz)) suitable to each primary antibody. Further, color was developed by the ECL method, followed by exposure to a film.

[2] = system: normal peripheral blood mononuclear cells; test: MTT assay, normal peripheral blood mononuclear cells; type: cell-based, human
Method: Mononuclear cells were isolated from normal peripheral blood and DHM2EQ was added at final concentrations of 2, 5, and 10 μg/ml, followed by 72-hour incubation. The proliferation-inhibitory effect was examined by the MTT assay. Cells to which the solvent DMSO had been added in equal volume (0 μg/ml) were used as controls. The cell viability was represented as the ratio to the MTT value of the controls (DHM2EQ-untreated) by letting it=100%.
Next, to investigate the inhibitory effect of DHMEQ on proliferation of cells of multiple myeloma (MM) patients, MM cells (MM1, MM2, and MM3) were isolated from patients' bone marrow, incubated for 48 hours at the DHMEQ concentration of 10 μg/ml, and the proliferation-inhibitory effect was examined by the MTT assay. Peripheral blood mononuclear cells (PBMC) isolated from normal peripheral blood were used as control cells. In the figure, the vertical axis indicates the relative values of the MTT values of treated cells versus untreated cells, i.e., (DHMEQ-treated/untreated)×100%.

[3] = system: human breast cancer cell line MCF-7; test: In vitro proliferation of MCF-7 (trypan blue cell count); type: cell-based
Method: The human breast cancer cell line MCF-7 (NF-κB non-constitutively activated tumor) was incubated in 24, 48, and 72 hours in the presence of 10 and 50 μg/ml DHMEQ, and the proliferation-suppressive effect was examined.
MCF-7 was plated in 6 well plates at 1×10^5/well. The next day, the culture media were changed into those (5 ml) containing DHMEQ at 10 and 50 μg/ml and into the control medium (5 ml) containing only DMSO, which is used for dissolution of DHMEQ, in equal amount to those containing each concentration of DHMEQ. The assay was performed in three wells per each group. Immediately after the change, cells were incubated for 24, 48, and 72 hours. Subsequently, the cells were scraped with trypsin+EDTA. The number of cells was counted with trypan blue and averages as well as standard deviations were calculated. Data for each group were obtained and plotted in comparison with the control cells treated with DMSO only.

[4] = system: human breast cancer cell line MCF-7 transplanted into SCID mice; test: MCF-7 subcutaneous tumor model in SCID mice; type: in vivo; conditions: DHMEQ 4 mg/kg i.p. three times per week
Method: Subcutaneous tumor model SCID mice (CLEA Japan) were given DHMEQ (4 mg/kg) three days a week and the volume of the tumors were periodically measured for examination of the suppressive effect of DHMEQ on tumor growth. The body weights of the mice were also measured simultaneously.
MCF-7 (1×10^6 cells) suspended in 100 μl of PBS was inoculated subcutaneously into the back of six-week-old SCID mice. DHMEQ was suspended in 0.5% methylcellulose (Nacalai Tesque) solution at 4 mg/kg in 200 μl. The drug-containing solution or 0.5% methylcellulose solution (200 μl) was intraperitoneally administered three times per week (n=8/group), starting on the next day after inoculation. The major axis and minor axis of the tumors were measured with calipers every seven days. The tumor volume was calculated as follows: (major axis)×(minor axis)^2/2. The body weights were also measured simultaneously.

[5] = system: ATL cell line MT-2 in SCID mice; test: Survival of SCID mice intraperitoneally inoculated with ATL cell line MT-2; type: in vivo; conditions: for mice survived: p<0.05
Method: First, five-week-old male SCID mice (CB17-scid/scid; SLC Japan, Inc (Shizuoka, Japan)) were treated for 3 to 5 days with 1 mg of IL-2 receptor antibody (TM-β1; J. Immunol. 147: 2222-2228, 1991), and intraperitoneally inoculated with the ATL cell line MT-2 (3 to 4×10^7 cells). Subsequently, the mice were intraperitoneally given 4 mg/kg bw or 12 mg/kg bw DHMEQ dissolved in 5% carboxymethyl cellulose (CMC; Sigma) solution three times a week for one month, and their survival probability and status were observed. […] The survival curve was calculated by the Kaplan-Mayer method, and the statistically significant difference was determined by the Cox-Mantel test.

[6] = system: human pancreatic cancer cell line Colo357; test: Annexin-V/PI flow cytometry apoptosis assay, Colo357 with irradiation; type: cell-based
Method: Next, the apoptosis-enhancing effect of DHMEQ on irradiated tumor cells was investigated. The human pancreatic cancer cell line Colo357 given 10 μg/ml DHMEQ for six hours, the human pancreatic cancer cell line Colo357 irradiated with 20 Gy radiation and then incubated for 6 hours, and the human pancreatic cancer cell line Colo357 given 10 μg/ml DHMEQ for six hours immediately after irradiation with 20 Gy radiation were subjected to Annexin-V/propidium iodide (PI) double staining. The apoptotic cells (lower right) were measured by flow cytometry and the ratio was calculated. […] On the other hand, in the cells to which DHMEQ was administered after irradiation with 20 Gy radiation, the apoptosis-inducing ability is enhanced three-fold, as compared with the cells only irradiated with 20 Gy radiation

NF-κB = NF-κB (Homo sapiens, UniProt P19838+Q04206); test: Gel shift assay (EMSA) of NF-κB activation in stimulated HUVECs; type: cell-based; parameters: endogenous in cells; host or cells: MCF-7 cells treated with TNF-α; conditions: DHMEQ 3 μg/ml, 2 h pretreatment
Text: HUVECs were pretreated with DHMEQ as follows. […] Nuclear extract was thus obtained.

Chain of NF-κB (Q04206 whole entry): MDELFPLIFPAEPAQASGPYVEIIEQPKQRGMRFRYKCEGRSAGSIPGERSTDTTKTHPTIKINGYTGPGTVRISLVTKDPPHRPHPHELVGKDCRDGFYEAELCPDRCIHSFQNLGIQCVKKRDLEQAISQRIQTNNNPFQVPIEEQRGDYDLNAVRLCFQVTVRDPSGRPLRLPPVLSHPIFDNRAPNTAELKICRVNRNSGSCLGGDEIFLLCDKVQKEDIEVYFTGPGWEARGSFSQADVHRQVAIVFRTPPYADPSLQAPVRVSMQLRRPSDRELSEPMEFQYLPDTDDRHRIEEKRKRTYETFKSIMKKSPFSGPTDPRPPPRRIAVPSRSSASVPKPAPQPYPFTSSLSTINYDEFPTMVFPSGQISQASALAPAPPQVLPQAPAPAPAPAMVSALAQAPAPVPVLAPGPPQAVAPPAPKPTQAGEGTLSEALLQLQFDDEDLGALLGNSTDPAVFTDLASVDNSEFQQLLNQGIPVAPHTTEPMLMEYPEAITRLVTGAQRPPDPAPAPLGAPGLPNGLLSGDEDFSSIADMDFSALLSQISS
Chain of NF-κB (P19838 1-433 limits assumed): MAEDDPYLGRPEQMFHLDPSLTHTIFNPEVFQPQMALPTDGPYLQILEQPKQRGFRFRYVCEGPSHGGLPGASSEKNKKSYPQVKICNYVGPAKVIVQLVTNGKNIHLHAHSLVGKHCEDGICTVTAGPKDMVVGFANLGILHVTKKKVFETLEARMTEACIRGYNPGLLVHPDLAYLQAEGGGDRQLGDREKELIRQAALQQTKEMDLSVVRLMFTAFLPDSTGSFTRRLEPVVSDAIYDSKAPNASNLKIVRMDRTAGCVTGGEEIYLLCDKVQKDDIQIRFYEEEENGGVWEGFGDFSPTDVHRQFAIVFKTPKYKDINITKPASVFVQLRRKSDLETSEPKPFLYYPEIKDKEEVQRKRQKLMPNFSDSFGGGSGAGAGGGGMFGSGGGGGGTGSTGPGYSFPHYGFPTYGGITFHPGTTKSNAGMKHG

O=C(NC1=CC(=O)C2OC2C1O)c1ccccc1O (stereo not drawn) [DHMEQ, 5,6-epoxy-4-hydroxy-3-salicyloylamino-2-cyclohexenone]
expression of ICAM-1, VCAM-1 and E-selectin [1]: markedly suppressed | proliferation of normal peripheral blood mononuclear cells (MTT) ([2]; 2, 5, 10 μg/ml, 72 hours): almost no inhibitory effect | influence on peripheral blood mononuclear cells (MTT) ([2]; PBMC control, 10 μg/ml, 48 hours): almost no influence | cells survived compared with the control ([3]; 10 μg/ml, 24 hours): 39% | cells survived compared with the control ([3]; 10 μg/ml, 48 hours): 25% | cells survived compared with the control ([3]; 10 μg/ml, 72 hours): 17% | cells survived compared with the control ([3]; 50 μ/ml, in and after 24 hours): no cells were observed to survive | mortality or weight loss of the mice [4]: No mortality or weight loss | tumor growth (tumor volume) ([4]; MCF-7 s.c.): significant suppressive effect | mice survived ([5]; 4 mg/kg i.p. three times a week for one month, about 200 days, control all 5 dead): 4 out of 6 | mice survived ([5]; 12 mg/kg i.p. three times a week for one month, about 30 days, control 4 out of 5 dead): 5 out of 6 | toxicity, anomalies in body weights etc. ([5]; SCID mice, up to three volumes of 4 mg/kg): toxicity was not noted | apoptosis-inducing ability versus irradiation only ([6]; 10 μg/ml six hours after 20 Gy radiation): three-fold | apoptosis induction by DHMEQ alone ([6]; 10 μg/ml, six hours): apoptosis was not induced | activation of NF-κB in HUVECs caused by TNF-α, IL-1β, and LPS (NF-κB): completely suppressed
